# Test results as given in US10179767B2 (GENENTECH, INC., priority 2015, dated 2019).
# Target: T1, hNav1.7 (Homo sapiens, UniProt Q15858)
# T1 construct: expressed in transfected cells
# Test: Tritiated sulfonamide binding to membranes from cells expressing hNav1.7 and the β1 subunit (Nav 1.7 ligand binding assay, competitive)
# Settings: competition with 100 pM [3H]compound, room temperature, 18 h
# Experimental: Tritiated Sulfonamide Binding to Membranes Isolated from Cells that Heterologously Express hNav1.7 and the β1 Subunit
# Preparation of membranes containing recombinantly expressed sodium channels: Frozen recombinant cell pellets were thawed on ice and diluted to 4 times the cell pellet weight with ice cold 50 mM Tris HCl, pH 7.4 buffer. The cell suspensions were homogenized on ice using a motorized glass dounce homogeniser. Homogenates were further diluted 8.4 times with ice cold 50 mM Tris HCl, pH 7.4 buffer and then centrifuged at 200×g at 4° C. for 15 min. The supernatants were collected and centrifuged at 10000×g at 4° C. for 50 min. The pellets were then re-suspended in 100 mM NaCl, 20 mM Tris HCl, pH 7.4 buffer containing 1% v/v protease inhibitors (Calbiochem) and re-homogenized on ice. The homogenized membranes were then processed through a syringe equipped with a 26 gauge needle. Protein concentrations were determined by Bradford Assay and the membranes were stored at −80° C.
# Radioligand Binding Studies:
# Saturation experiments. A competitive NaV1.7 inhibitor having a methyl group was tritiated. Three tritiums were incorporated in place of methyl hydrogens to generate [^3H]compound. Binding of this radioligand was preformed in 5 mL borosilicate glass test tubes at room temperature. Binding was initiated by adding membranes to increasing concentrations of [^3H]compound in 100 mM NaCl, 20 mM Tris HCl, pH 7.4 buffer containing 0.01% w/v bovine serum albumin (BSA) for 18 h. Non-specific binding was determined in the presence of 1 μM unlabelled compound. After 18 h, the reactants were filtered through GF/C glass fiber filters presoaked in 0.5% w/v polyethylene imine Filters were washed with 15 mL ice cold 100 mM NaCl, 20 mM Tris HCl, pH7.4 buffer containing 0.25% BSA to separate bound from free ligand. [^3H]compound bound to filters was quantified by liquid scintillation counting.
# Competitive Binding Experiments:
# Binding reactions were preformed in 96-well polypropylene plates at room temperature for 18 h. In 360 μL, membranes were incubated with 100 pM [^3H]compound and increasing concentrations of Test Compound. Non-specific binding was defined in the presence of 1 μM unlabelled compound. Reactions were transferred and filtered through 96-well glass fiber/C filter plates presoaked with 0.5% polyethylene imine. The filtered reactions were washed 5 times with 200 μL ice cold buffer containing 0.25% BSA. Bound radioactivity was determined by liquid scintillation counting. Data Analysis: For saturation experiments, non-specific binding was subtracted from total binding to provide specific binding and these values were recalculated in terms of pmol ligand bound per mg protein. Saturation curves were constructed and dissociation constants were calculated using the single site ligand binding model: Beq=(Bmax*X)/(X+Kd), where Beq is the amount of ligand bound at equilibrium, Bmax is the maximum receptor density, Kd is the dissociation constant for the ligand, and X is the free ligand concentration. For competition studies percent inhibition was determined and IC50 values were calculated using a 4 parameter logistic model (% inhibition=(A+((B−A)/(1+((x/C)⨣D)))) using XLfit, where A and B are the maximal and minimum inhibition respectively, C is the IC50 concentration and D is the (Hill) slope.
# T1 sequence (Q15858 whole entry): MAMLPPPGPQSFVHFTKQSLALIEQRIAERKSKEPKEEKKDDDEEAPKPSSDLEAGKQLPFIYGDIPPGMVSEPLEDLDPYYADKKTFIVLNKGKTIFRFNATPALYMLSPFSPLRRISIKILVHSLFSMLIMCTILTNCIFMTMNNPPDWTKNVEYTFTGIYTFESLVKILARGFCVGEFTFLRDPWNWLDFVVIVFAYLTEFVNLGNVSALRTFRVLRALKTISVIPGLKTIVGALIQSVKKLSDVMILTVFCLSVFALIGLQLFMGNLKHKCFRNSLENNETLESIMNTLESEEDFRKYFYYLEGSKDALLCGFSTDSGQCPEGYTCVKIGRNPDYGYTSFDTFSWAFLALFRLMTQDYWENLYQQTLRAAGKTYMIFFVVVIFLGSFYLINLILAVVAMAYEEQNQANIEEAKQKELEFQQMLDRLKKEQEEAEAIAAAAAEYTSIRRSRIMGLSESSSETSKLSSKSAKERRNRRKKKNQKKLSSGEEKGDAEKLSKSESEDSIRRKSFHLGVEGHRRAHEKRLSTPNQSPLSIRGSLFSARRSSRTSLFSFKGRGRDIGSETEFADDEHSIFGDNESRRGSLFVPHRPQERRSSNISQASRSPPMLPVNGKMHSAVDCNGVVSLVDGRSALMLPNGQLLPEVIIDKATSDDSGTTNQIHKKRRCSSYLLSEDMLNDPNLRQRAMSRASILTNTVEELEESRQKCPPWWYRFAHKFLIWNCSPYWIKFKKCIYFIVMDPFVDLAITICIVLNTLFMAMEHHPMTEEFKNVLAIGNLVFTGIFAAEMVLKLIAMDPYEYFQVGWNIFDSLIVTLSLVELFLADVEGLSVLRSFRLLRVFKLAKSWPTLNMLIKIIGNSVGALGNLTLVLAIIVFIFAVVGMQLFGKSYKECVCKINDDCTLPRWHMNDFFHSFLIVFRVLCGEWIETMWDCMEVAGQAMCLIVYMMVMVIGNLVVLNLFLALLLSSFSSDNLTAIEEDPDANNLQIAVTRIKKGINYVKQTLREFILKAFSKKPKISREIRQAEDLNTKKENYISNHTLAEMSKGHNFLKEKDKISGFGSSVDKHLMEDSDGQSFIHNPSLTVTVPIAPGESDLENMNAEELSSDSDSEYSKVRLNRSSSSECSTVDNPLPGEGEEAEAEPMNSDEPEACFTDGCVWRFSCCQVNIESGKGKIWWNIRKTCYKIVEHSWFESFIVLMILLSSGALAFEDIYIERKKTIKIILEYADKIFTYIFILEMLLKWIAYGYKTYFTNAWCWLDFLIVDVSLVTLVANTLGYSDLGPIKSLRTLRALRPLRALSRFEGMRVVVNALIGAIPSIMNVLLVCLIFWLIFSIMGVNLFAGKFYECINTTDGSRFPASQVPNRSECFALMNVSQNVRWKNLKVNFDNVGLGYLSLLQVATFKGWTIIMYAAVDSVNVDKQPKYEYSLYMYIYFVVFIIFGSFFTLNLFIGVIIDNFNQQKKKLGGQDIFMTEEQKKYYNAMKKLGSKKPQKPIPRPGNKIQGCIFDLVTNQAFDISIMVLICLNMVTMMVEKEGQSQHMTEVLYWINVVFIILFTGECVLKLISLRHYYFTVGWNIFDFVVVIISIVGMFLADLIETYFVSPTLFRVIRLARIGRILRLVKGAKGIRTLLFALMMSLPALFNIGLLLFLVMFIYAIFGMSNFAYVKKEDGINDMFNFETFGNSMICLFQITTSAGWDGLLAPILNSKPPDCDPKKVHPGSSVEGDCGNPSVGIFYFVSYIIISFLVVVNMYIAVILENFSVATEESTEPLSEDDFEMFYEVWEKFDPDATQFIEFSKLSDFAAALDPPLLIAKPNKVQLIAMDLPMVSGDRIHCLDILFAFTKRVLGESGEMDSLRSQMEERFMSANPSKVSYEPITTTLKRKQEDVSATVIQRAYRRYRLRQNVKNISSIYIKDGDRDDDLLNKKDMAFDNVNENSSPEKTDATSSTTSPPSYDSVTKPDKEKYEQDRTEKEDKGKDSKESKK
# T1 sequence (Q07699 19-218 partner): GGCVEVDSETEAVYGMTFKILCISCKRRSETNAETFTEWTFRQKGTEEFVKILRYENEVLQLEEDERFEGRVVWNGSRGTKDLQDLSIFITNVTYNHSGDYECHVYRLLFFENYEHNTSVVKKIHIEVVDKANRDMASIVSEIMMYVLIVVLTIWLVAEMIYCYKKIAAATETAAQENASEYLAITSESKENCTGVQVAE
row,Structure (SMILES),IC50 [nM]
1,"CS(=O)(=O)NC(=O)c1ccc(OCC2CCN(Cc3cc(C(F)(F)F)ccc3Cl)CC2)c(C2CC2)c1 [Example 60, 4-((1-(2-chloro-5-(trifluoromethyl)benzyl)piperidin-4-yl)methoxy)-3-cyclopropyl-N-(methylsulfonyl)benzamide]",8.1
2,"CC(c1cc(Cl)cc(Cl)c1)N1CCC(COc2ccc(C(=O)NS(C)(=O)=O)cc2C2CC2)CC1 (stereo not drawn) [Example 61, 3-cyclopropyl-4-((1-(1-(3,5-dichlorophenyl)ethyl)piperidin-4-yl)methoxy)-N-(methylsulfonyl)-benzamide]",10
3,"CS(=O)(=O)NC(=O)c1cc(C2CC2)c(OCC2(F)CCN(Cc3cc(C(F)(F)F)ccc3Cl)CC2)cc1F [Example 63, 4-((1-(2-chloro-5-(trifluoromethyl)benzyl)-4-fluoropiperidin-4-yl)methoxy)-5-cyclopropyl-2-fluoro-N-(methylsulfonyl)benzamide]",7

# Further compounds by falling IC50, results first:
row,IC50 [nM],Structure (SMILES)
1,9.8,"CS(=O)(=O)NC(=O)c1ccc(OCC2CCN(Cc3cc(C(F)(F)F)cc(Cl)c3F)CC2)c(C2CC2)c1 [Example 62, 4-((1-(3-chloro-2-fluoro-5-(trifluoromethyl)benzyl)piperidin-4-yl)methoxy)-3-cyclopropyl-N-(methylsulfonyl)benzamide]"
2,9.3,"O=C(NS(=O)(=O)C1CC1)c1cc(C2CC2)c(OCC2(F)CCN(c3cc(C(F)(F)F)c(Cl)cn3)CC2)cc1F [Example 59, 4-((1-(5-chloro-4-(trifluoromethyl)pyridin-2-yl)-4-fluoropiperidin-4-yl)methoxy)-5-cyclopropyl-N-(cyclopropylsulfonyl)-2-fluorobenzamide]"
3,5.6,"C[C@@H](c1cc(Cl)cc(Cl)c1)N1CCC(F)(COc2cc(F)c(C(=O)NS(=O)(=O)N3CCC3)cc2C2CC2)CC1 [Example 58, (S)—N-(azetidin-1-ylsulfonyl)-5-cyclopropyl-4-((1-(1-(3,5-dichlorophenyl)ethyl)-4-fluoropiperidin-4-yl)methoxy)-2-fluorobenzamide]"
